# Measurements published in patent publication US20080226596A1, “Therapeutic compositions and methods useful in treating hepatitis” (priority 2006, published 2008).
# Entries after “also recorded” stand apart in the source; their conditions may differ.
# Columns and labels:
# [1] = molecular target: T1, intracellular Flag-PRL-3 (Homo sapiens, UniProt O75365); experiment: Immunocomplex PTPase assay, Flag-PRL-3 NIH3T3 transfectants; format: cell-based, mouse; details: 5 min treatment
# T1 construct: expressed in transfected cells; host or cells: NIH3T3 transfectants, pBabepuro vector
# T1 sequence (O75365 whole entry): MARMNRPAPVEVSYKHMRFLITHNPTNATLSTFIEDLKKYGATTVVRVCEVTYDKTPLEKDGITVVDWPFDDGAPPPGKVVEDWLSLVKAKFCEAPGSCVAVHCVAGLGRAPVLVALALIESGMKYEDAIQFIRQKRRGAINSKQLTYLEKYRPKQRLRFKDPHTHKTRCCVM
# Description: Immunocomplex PTPase assays were performed to assess the effects of sodium stibogluconate on intracellular PTPases. Cells were untreated or treated with sodium stibogluconate for 5 minutes, washed with fresh medium and then lysed in cold lysis buffer (50 mM Tris, pH 7.4; 150 mM NaCl; 1% NP40; 2 mM PMSF; 20, g/ml of Aprotinin). The lysates were incubated with an anti-Flag antibody in immunoprecipitation assays. The immunocomplexes were collected with protein G sepharose beads (Pharmacia) and washed in cold lysis buffer for 4 times. […] 100 µL of malachite green solution (UBI) was added to each reaction prior to measurement of OD660 to quantify the amounts of free phosphate cleaved by the PTPases from the peptide substrate (Pathak et al., J. Imumol. 167, 3391 (2001)). The remaining 10% contents of individual samples were analyzed by SDS-PAGE/Western blotting to quantify the relative amounts of the phosphatase proteins. […]
# The effects of sodium stibogluconate on intracellular PTPases were assessed using NIH3T3 or WM9 transfectants. […]
# [2] = tested on: SK-N-SH cells; experiment: SK-N-SH neuroblastoma cell growth, MTT assay; format: cell-based, human; details: 100 μg/ml, day 6
# Description: (§1) NIH3T3 (Yi, et al., Blood 85, 87 (1995)), WM9 (Forsberg, et al., Proc. Nat. Acad Sci. USA 90, 393 (1993)), DU145 (Mickey, et al., Cancer Res. 37, 4049 (1977)), LoVo (Drewinko, et al., Cancer Res. 36, 467 (1976)), HEY (Buick, et al., Cancer Res. 45, 3668 (1985)), U251 (Yoshida, et al., Cancer 50, 410 (1982)), A549 (Giard, et al., J. Natl. Cancer Inst. 51, 1417 (1973)) and SK-N-SH (Helson, et al., Cancer Res. 35, 2594 (1975)) cell lines have been described and were cultured in RPMI 1640 supplemented with 10% fetal calf serum (FCS). For measurement of sodium stibogluconate effects on cell growth in vitro, cells were cultured in the absence (−) or presence (+) of various amounts of sodium stibogluconate for 6 days with viable cells quantified by MTT assays (Mosmann, J. Immunol. Methods 65, 55 (1983)). Percentages of growth inhibition by sodium stibogluconate were calculated (.+−.x
# [3] = Toxicity/tolerance of sodium stibogluconate in nude mice; format: in vivo
# Description: The dosage of sodium stibogluconate corresponds to approximately 440 mg Sb/kg body weight (average mouse body weight 27 g), substantially higher than the standard therapeutic dose of 20 mg Sb/kg and the high dose (143 mg Sb/kg) that was clinically used by accident without serious toxicity. This dose of sodium stibogluconate was based on a previous observation in a pilot study that mice could tolerate daily dose of 20 mg Sb (approximately 700-800 mg Sb/kg). […] In light of the relatively rapid rate of clearance of the drug in vivo, 440 mg Sb/kg dosage was used to ensure the detection of the effectiveness of the drug for this initial study.
# As discussed above, the dosage of sodium stibogluconate used for the treatment of nude mice was 12 mg Sb/mouse, s.c., daily (or approximately 440 mg/kg body weight). This dosage is much higher than the standard dose for leishmaniasis (20 mg Sb/kg, daily). As an initial step to assess the toxicity of such a high dosage of sodium stibogluconate in nude mice, the effect of sodium stibogluconate on the viability and body weights of WM9 xenografts nude mice during the 25 day period of the study was determined.
# [4] = tested on: DU145 cells; experiment: DU145 prostate cancer cell growth, MTT assay; format: cell-based, human; details: single agent, 50-100 μg/ml, day 6
# Description: (§2) For cell proliferation assays, cells were grown in 10% FCS culture medium containing various amounts of IFNs and/or sodium stibogluconate in 96 well plates and cultured at 37° C. for 3 or 6 days as indicated. The numbers of viable cells in proliferation assays were determined by MTT assays as described in Phatak et al., J. Immunol. 167, 3391 (2001).
# as §1
# [5] = tested on: C42 cells; experiment: C42 prostate cancer cell growth; format: cell-based, human
# Description: as §2
# [6] = tested on: Renca cells; experiment: Renca cell growth in culture, MTT assay; format: cell-based, murine; details: SSG 6.25-200 μg/ml, 6 days; listed as SSG
# Description: Renca (Murphy, G. P., and W. J. Hrushesky. 1973. A murine renal cell carcinoma. J Natl Cancer Inst 50:1013), Jurkat (Gillis, S., and J. Watson. 1980. Biochemical and biological characterization of lymphocyte regulatory molecules. V. Identification of an interleukin 2-producing human leukemia T cell line. J Exp Med 152:1709) and WM9 (Forsberg, K., I. Valyi-Nagy, C. H. Heldin, M. Herlyn, and B. Westermark. 1993. Platelet-derived growth factor (PDGF) in oncogenesis: development of a vascular connective tissue stroma in xenotransplanted human melanoma producing PDGF-BB. Proc Natl Acad Sci USA 90:393) cell lines were obtained from a colleague at the Cleveland Clinic Foundation (CCF) and cultured in RPMI 1640 medium supplemented with 10% fetal calf serum (FCS). […] SSG has been described previously (Yi, T., M. K. Pathak, D. J. Lindner, M. E. Ketterer, C. Farver, and E. C. Borden. 2002. Anticancer activity of sodium stibogluconate in synergy with IFNs. J Immunol 169:5978). For cell growth inhibition assays, cells were cultured in absence or presence of various amounts of SSG for 6 days with viable cells quantified by MTT assays as described elsewhere (Pathak, M. K., and T. Yi. 2001. Sodium stibogluconate is a potent inhibitor of protein tyrosine phosphatases and augments cytokine responses in hemopoietic cell lines. J Immunol 167:3391).
smiles,measurement,setting,value
O.O.O.O.O.O.O.O.O.O=C([O-])[C@@H]1[O][Sb]2([O-])([O][Sb]34([OH])[O][C@H]([C@H](O)CO)[C@H]([O]3)[C@H](C(=O)[O-])[O]4)[O][C@H]([C@H](O)CO)[C@@H]1[O]2.[Na+].[Na+].[Na+] [sodium stibogluconate],PTPase activity of Flag-PRL-3 immunocomplexes from treated cells,[1],lack of PTPase activity
same,killing of SK-N-SH cells,[2],near-complete cell killing
same,tolerability,[3]; 12 mg Sb daily (440 mg Sb/kg daily),well tolerated with no serious side effects
same,tolerated daily dose in mice,[3]; pilot study,20 mg Sb
same,tolerated daily dose in mice per body weight,[3]; pilot study,700-800 mg Sb/kg
same,internal organs on dissection,[3]; two mice from each group,no apparent abnormality of the internal organs
same,survival of WM9-inoculated nude mice,"[3]; until day 25, 4 mice/group",survived
same,killing of DU145 cells,[4],killed all cells; also recorded: complete or near complete killing; also recorded: near-complete cell killing
same,effect on C42 cells,[5],highly resistant
same,Renca cell growth in culture,[6],failed to inhibit Renca cell proliferation in culture
